Measurements published in patent US7470684B2, “Spiropiperidine derivatives as NK3 antagonists” (Hoffmann-La Roche Inc., priority 2007, dated 2008).

These compounds were tested against T1, human NK3 receptor (Homo sapiens, UniProt P29371) (assay: [3H]SR142801 competition binding assay). Details: not given.
T1 construct: expressed in transfected cells; host or cells: HEK293 cells, transiently transfected; membranes
T1 sequence (P29371 1-465): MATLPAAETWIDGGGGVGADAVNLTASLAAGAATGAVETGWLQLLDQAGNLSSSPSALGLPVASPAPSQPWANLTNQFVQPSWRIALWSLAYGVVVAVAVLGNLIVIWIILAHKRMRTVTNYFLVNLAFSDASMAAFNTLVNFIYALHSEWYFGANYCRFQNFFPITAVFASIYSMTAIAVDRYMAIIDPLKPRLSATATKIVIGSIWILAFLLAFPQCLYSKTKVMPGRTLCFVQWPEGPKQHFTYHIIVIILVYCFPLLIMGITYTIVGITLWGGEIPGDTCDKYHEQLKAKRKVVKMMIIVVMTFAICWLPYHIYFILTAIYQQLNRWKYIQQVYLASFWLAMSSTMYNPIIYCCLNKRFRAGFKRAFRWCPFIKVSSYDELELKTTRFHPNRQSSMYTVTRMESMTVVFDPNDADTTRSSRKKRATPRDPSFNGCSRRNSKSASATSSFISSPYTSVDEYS
Protocol: [^3H]SR142801 Competition Binding Assay
hNK3 receptor binding experiment were performed using [^3H]SR142801 (Catalog No. TRK1035, specific activity: 74.0 Ci/mmol, Amersham, GE Healthcare UK limited, Buckinghamshire, UK) and membrane isolated from HEK293 cells transiently expressing recombinant human NK3 receptor. After thawing, the membrane homogenates were centrifuged at 48,000×g for 10 min at 4° C., the pellets were resuspended in the 50 mM Tris-HCl, 4 mM MnCl2, 1 μM phosphoramidon, 0.1% BSA binding buffer at pH 7.4 to a final assay concentration of 5 μg protein/well. For inhibition experiments, membranes were incubated with [^3H]SR142801 at a concentration equal to KD value of radioligand and 10 concentrations of the inhibitory compound (0.0003-10 μM) (in a total reaction volume of 500 μl) for 75 min at room temperature (RT). At the end of the incubation, membranes were filtered onto unitfilter (96-well white microplate with bonded GF/C filter preincubated 1 h in 0.3% PEI+0.3% BSA, Packard BioScience, Meriden, Conn.) with a Filtermate 196 harvester (Packard BioScience) and washed 4 times with ice-cold 50 mM Tris-HCl, pH 7.4 buffer. Nonspecific binding was measured in the presence of 10 μM SB222200 for both radioligands. The radioactivity on the filter was counted (5 min) on a Packard Top-count microplate scintillation counter with quenching correction after addition of 45 μl of microscint 40 (Canberra Packard S.A., Zürich, Switzerland) and shaking for 1 h. Inhibition curves were fitted according to the Hill equation: y=100/(1+(x/IC50)^nH), where nH=slope factor using Excel-fit 4 software (Microsoft). IC50 values were derived from the inhibition curve and the affinity constant (Ki) values were calculated using the Cheng-Prussoff equation Ki=IC50/(1+[L]/KD) where [L] is the concentration of radioligand and KD is its dissociation constant at the receptor, derived from the saturation isotherm. All experiments were performed in duplicate and the mean±standard error (SEM) of the individual Ki values was calculated.
With `CN(Cc1ccc(Cl)cc1)C(=O)C(CCN1CCC2(CC1)OC(=O)N(C)c1ccc(F)cc12)c1ccc(Cl)c(Cl)c1` (stereo not drawn) [Example 42, N-(4-chlorobenzyl)-2-(3,4-dichlorophenyl)-4-(6-fluoro-1-methyl-2-oxo-1,2-dihydro-1′H-spiro[3,1-benzoxazine-4,4′-piperidin]-1′-yl)-N-methylbutanamide] the Ki was 0.0008 µM.
`CN1C(=O)OC2(CCN(CCC(C(=O)N3CCC(F)CC3)c3ccc(Cl)c(Cl)c3)CC2)c2cc(F)ccc21` (stereo not drawn) [Example 43, 1′-[3-(3,4-dichlorophenyl)-4-(4-fluropiperidin-1-yl)-4-oxobutyl]-6-fluoro-1-methylspiro[3,1-benzoxazine-4,4′-piperidin]-2(1H)-one] was tested, and the Ki was 0.0619 µM.
`O=C1Nc2ccc(F)cc2C2(CCN(CCC(C(=O)NCc3cccc(C(F)(F)F)c3)c3ccc(F)cc3)CC2)O1` (stereo not drawn) [Example 61, 4-(6-fluoro-2-oxo-1,2-dihydro-1′H-spiro[3,1-benzoxazine-4,4′-piperidin]-1′-yl)-2-(4-fluorophenyl)-N-[3-(trifluoromethyl)benzyl]butanamide] showed a Ki of 0.0885 µM.

Same assay, conditions: [3H]SR142801 displacement, membranes of HEK293 cells transiently expressing recombinant human NK3 receptor; read-out: hNK3 Ki
Work on `O=C1Nc2ccc(F)cc2C2(CCN(CCC(C(=O)NCc3ccc(Cl)cc3Cl)c3ccc(Cl)c(Cl)c3)CC2)O1` (stereo not drawn) [Example 62, N-(2,4-dichlorobenzyl)-2-(3,4-dichlorophenyl)-4-(6-fluoro-2-oxo-1,2-dihydro-1′H-spiro[3,1-benzoxazine-4,4′-piperidin]-1′-yl)butanamide] yielded a Ki of 0.01 µM.
Work on `CN(CCc1ccccc1)C(=O)C(CCN1CCC2(CC1)OC(=O)Nc1ccc(F)cc12)c1ccc(Cl)c(Cl)c1` (stereo not drawn) [Example 65, 2-(3,4-dichlorophenyl)-4-(6-fluoro-2-oxo-1,2-dihydro-1′H-spiro[3,1-benzoxazine-4,4′-piperidin]-1′-yl)-N-methyl-N-(2-phenylethyl)butanamide] yielded a Ki of 0.0707 µM.
In the case of `CN(Cc1ccc(N2CCOCC2)cc1)C(=O)C(CCN1CCC2(CC1)OC(=O)Nc1ccc(F)cc12)c1ccc(Cl)c(Cl)c1` (stereo not drawn) [Example 70, 2-(3,4-dichlorophenyl)-4-(6-fluoro-2-oxo-1,2-dihydro-1′H-spiro[3,1-benzoxazine-4,4′-piperidin]-1′-yl)-N-methyl-N-(4-morpholin-4-ylbenzyl)butanamide], the Ki is reported as 0.098 µM.
`CN(Cc1ccc(-c2ccncc2)cc1)C(=O)C(CCN1CCC2(CC1)OC(=O)Nc1ccc(F)cc12)c1ccc(Cl)c(Cl)c1` (stereo not drawn) [Example 72, 2-(3,4-dichlorophenyl)-4-(6-fluoro-2-oxo-1,2-dihydro-1′H-spiro[3,1-benzoxazine-4,4′-piperidin]-1′-yl)-N-methyl-N-(4-pyridin-4-ylbenzyl)butanamide] showed a Ki of 0.0187 µM.

Same assay, conditions: hNK3 Ki, [3H]SR142801 displacement, membranes of HEK293 cells transiently expressing recombinant human NK3 receptor
With `CN(Cc1cccc(Cl)c1)C(=O)C(CCN1CCC2(CC1)OC(=O)N(C)c1ccc(F)cc12)c1ccc(Cl)c(Cl)c1` (stereo not drawn) [Example 40, N-(3-chlorobenzyl)-2-(3,4-dichlorophenyl)-4-(6-fluoro-1-methyl-2-oxo-1,2-dihydro-1′H-spiro[3,1-benzoxazine-4,4′-piperidin]-1′-yl)-N-methylbutanamide] the Ki was 0.0011 µM.
With `CN(Cc1ccccc1Cl)C(=O)C(CCN1CCC2(CC1)OC(=O)N(C)c1ccc(F)cc12)c1ccc(Cl)c(Cl)c1` (stereo not drawn) [Example 44, N-(2-chlorobenzyl)-2-(3,4-dichlorophenyl)-4-(6-fluoro-1-methyl-2-oxo-1,2-dihydro-1′H-spiro[3,1-benzoxazine-4,4′-piperidin]-1′-yl)-N-methylbutanamide] the Ki was 0.0016 µM.
Work on `O=C1Nc2ccc(F)cc2C2(CCN(CCC(C(=O)NCc3ccc(Cl)cc3Cl)c3ccc(F)cc3)CC2)O1` (stereo not drawn) [Example 47, N-(2,4-dichlorobenzyl)-4-(6-fluoro-2-oxo-1,2-dihydro-1′H-spiro[3,1-benzoxazine-4,4′-piperidin]-1′-yl)-2-(4-fluorophenyl)butanamide] yielded a Ki of 0.0827 µM.
`O=C1Nc2ccc(F)cc2C2(CCN(CCC(C(=O)NCc3ccccc3OC(F)(F)F)c3ccc(F)cc3)CC2)O1` (stereo not drawn) [Example 49, 4-(6-fluoro-2-oxo-1,2-dihydro-1′H-spiro[3,1-benzoxazine-4,4′-piperidin]-1′-yl)-2-(4-fluorophenyl)-N-[2-(trifluoromethoxy)benzyl]butanamide] was tested, and the Ki was 0.0909 µM.
`CN(Cc1ccc(C(F)(F)F)cc1)C(=O)C(CCN1CCC2(CC1)OC(=O)Nc1ccc(F)cc12)c1ccc(F)cc1` (stereo not drawn) [Example 51, 4-(6-fluoro-2-oxo-1,2-dihydro-1′H-spiro[3,1-benzoxazine-4,4′-piperidin]-1′-yl)-2-(4-fluorophenyl)-N-methyl-N-[4-(trifluoromethyl)benzyl]butanamide] showed a Ki of 0.0322 µM.
`Cc1ccc(CN(C)C(=O)C(CCN2CCC3(CC2)OC(=O)Nc2ccc(F)cc23)c2ccc(F)cc2)cc1` (stereo not drawn) [Example 56, 4-(6-fluoro-2-oxo-1,2-dihydro-1′H-spiro[3,1-benzoxazine-4,4′-piperidin]-1′-yl)-2-(4-fluorophenyl)-N-methyl-N-(4-methylbenzyl)butanamide] was tested, and the Ki was 0.0664 µM.
`CN(Cc1cccc(C(F)(F)F)c1)C(=O)C(CCN1CCC2(CC1)OC(=O)Nc1ccc(F)cc12)c1ccc(F)cc1` (stereo not drawn) [Example 58, 4-(6-fluoro-2-oxo-1,2-dihydro-1′H-spiro[3,1-benzoxazine-4,4′-piperidin]-1′-yl)-2-(4-fluorophenyl)-N-methyl-N-[3-(trifluoromethyl)benzyl]butanamide] was tested, and the Ki was 0.0949 µM.
`CN(Cc1ccc(F)cc1)C(=O)C(CCN1CCC2(CC1)OC(=O)Nc1ccc(F)cc12)c1ccc(F)cc1` (stereo not drawn) [Example 59, N-(4-fluorobenzyl)-4-(6-fluoro-2-oxo-1,2-dihydro-1′H-spiro[3,1-benzoxazine-4,4′-piperidin]-1′-yl)-2-(4-fluorophenyl)-N-methylbutanamide] gave a Ki of 0.0489 µM.
With `CN(Cc1ccccc1)C(=O)C(CCN1CCC2(CC1)OC(=O)Nc1ccc(F)cc12)c1ccc(Cl)c(Cl)c1` (stereo not drawn) [Example 64, N-benzyl-2-(3,4-dichlorophenyl)-4-(6-fluoro-2-oxo-1,2-dihydro-1′H-spiro[3,1-benzoxazine-4,4′-piperidin]-1′-yl)-N-methylbutanamide] the Ki was 0.0125 µM.
`O=C1Nc2ccc(F)cc2C2(CCN(CCC(C(=O)NCc3ccccc3OC(F)(F)F)c3ccc(Cl)c(Cl)c3)CC2)O1` (stereo not drawn) [Example 66, 2-(3,4-dichlorophenyl)-4-(6-fluoro-2-oxo-1,2-dihydro-1′H-spiro[3,1-benzoxazine-4,4′-piperidin]-1′-yl)-N-[2-(trifluoromethoxy)benzyl]butanamide] gave a Ki of 0.0288 µM.
`O=C1Nc2ccc(F)cc2C2(CCN(CCC(C(=O)NCc3cccc(OC(F)F)c3)c3ccc(Cl)c(Cl)c3)CC2)O1` (stereo not drawn) [Example 67, 2-(3,4-dichlorophenyl)-N-[3-(difluoromethoxy)benzyl]4-(6-fluoro-2-oxo-1,2-dihydro-1′H-spiro[3,1-benzoxazine-4,4′-piperidin]-1′-yl)butanamide] showed a Ki of 0.019 µM.
Work on `CN(Cc1ccc(C(F)(F)F)cc1)C(=O)C(CCN1CCC2(CC1)OC(=O)Nc1ccc(F)cc12)c1ccc(Cl)c(Cl)c1` (stereo not drawn) [Example 68, 2-(3,4-dichlorophenyl)-4-(6-fluoro-2-oxo-1,2-dihydro-1′H-spiro[3,1-benzoxazine-4,4′-piperidin]-1′-yl)-N-methyl-N-[4-(trifluoromethyl)benzyl]butanamide] yielded a Ki of 0.0014 µM.
Compound `COc1ccc(CN(C)C(=O)C(CCN2CCC3(CC2)OC(=O)Nc2ccc(F)cc23)c2ccc(Cl)c(Cl)c2)cc1F` (stereo not drawn) [Example 74, 2-(3,4-dichlorophenyl)-N-(3-fluoro-4-methoxybenzyl)-4-(6-fluoro-2-oxo-1,2-dihydro-1′H-spiro[3,1-benzoxazine-4,4′-piperidin]-1′-yl)-N-methylbutanamide] has a Ki of 0.0055 µM.
`COc1cc(CN(C)C(=O)C(CCN2CCC3(CC2)OC(=O)Nc2ccc(F)cc23)c2ccc(Cl)c(Cl)c2)ccc1OC(F)F` (stereo not drawn) [Example 75, 2-(3,4-dichlorophenyl)-N-[4(difluoromethoxy)-3-methoxybenzyl]4-(6-fluoro-2-oxo-1,2-dihydro-1′H-spiro[3,1-benzoxazine-4,4′-piperidin]-1′-yl)-N-methylbutanamide] was tested, and the Ki was 0.0077 µM.
